Laboratory results as given in ChEMBL document CHEMBL1130542, “Design and synthesis of an -mannosyl terpenoid as selective inhibitor of P-selectin” (Bioorg Med Chem Lett, 1997).
Active and inactive are the calls of the source. The calls are words filed in the database; no cut-off is given here.

How the values were obtained:
[1] = target: T1, E-selectin (Homo sapiens) (UniProt P16581); assay: Inhibitory activity against Selectin E was determined; IA=Inactive
T1 sequence (whole entry): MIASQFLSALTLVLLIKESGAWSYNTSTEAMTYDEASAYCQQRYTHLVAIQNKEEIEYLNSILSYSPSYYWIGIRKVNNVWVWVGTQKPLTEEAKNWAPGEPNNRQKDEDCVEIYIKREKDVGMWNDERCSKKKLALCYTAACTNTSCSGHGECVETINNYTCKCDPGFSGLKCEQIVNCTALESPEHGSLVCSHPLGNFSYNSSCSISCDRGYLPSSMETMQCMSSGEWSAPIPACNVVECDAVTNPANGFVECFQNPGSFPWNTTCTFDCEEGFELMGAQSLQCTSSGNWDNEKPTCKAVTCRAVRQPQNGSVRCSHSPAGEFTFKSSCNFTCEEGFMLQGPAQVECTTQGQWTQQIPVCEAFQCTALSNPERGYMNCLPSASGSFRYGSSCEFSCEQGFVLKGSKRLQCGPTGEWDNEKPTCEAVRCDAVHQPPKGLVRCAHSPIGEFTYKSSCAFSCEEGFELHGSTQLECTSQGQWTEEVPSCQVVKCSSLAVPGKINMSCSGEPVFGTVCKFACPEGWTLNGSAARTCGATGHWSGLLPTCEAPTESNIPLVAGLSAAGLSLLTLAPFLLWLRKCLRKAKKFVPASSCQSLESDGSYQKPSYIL

[2] = target: T2, P-selectin (Homo sapiens) (UniProt P16109); assay: Inhibitory activity against P-selectin was determined; IA=Inactive
T2 sequence (whole entry): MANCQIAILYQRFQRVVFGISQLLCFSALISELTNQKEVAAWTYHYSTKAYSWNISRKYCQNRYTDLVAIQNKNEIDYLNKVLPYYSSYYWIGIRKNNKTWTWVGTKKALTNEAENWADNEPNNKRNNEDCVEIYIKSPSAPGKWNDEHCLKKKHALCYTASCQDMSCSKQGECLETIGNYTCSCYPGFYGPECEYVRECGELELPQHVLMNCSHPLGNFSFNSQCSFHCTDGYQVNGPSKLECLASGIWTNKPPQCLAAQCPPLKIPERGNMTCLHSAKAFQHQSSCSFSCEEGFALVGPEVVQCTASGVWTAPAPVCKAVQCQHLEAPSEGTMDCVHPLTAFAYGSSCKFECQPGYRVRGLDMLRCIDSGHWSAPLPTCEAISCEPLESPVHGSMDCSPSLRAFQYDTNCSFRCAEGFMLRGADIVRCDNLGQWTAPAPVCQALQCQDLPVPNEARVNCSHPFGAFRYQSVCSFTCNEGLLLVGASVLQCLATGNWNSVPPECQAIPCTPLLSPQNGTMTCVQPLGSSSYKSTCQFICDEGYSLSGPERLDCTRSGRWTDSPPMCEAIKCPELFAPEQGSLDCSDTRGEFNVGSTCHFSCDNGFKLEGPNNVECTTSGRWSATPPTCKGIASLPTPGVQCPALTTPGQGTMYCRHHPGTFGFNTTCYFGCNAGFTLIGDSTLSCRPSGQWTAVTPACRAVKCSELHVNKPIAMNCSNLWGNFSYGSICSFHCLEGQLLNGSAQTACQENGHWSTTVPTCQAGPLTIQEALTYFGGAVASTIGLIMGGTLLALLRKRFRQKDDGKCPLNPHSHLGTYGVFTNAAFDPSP

[3] = target: T3, L-selectin (Homo sapiens) (UniProt P14151); assay: Inhibitory activity against L-selectin was determined; IA=Inactive
T3 sequence (whole entry): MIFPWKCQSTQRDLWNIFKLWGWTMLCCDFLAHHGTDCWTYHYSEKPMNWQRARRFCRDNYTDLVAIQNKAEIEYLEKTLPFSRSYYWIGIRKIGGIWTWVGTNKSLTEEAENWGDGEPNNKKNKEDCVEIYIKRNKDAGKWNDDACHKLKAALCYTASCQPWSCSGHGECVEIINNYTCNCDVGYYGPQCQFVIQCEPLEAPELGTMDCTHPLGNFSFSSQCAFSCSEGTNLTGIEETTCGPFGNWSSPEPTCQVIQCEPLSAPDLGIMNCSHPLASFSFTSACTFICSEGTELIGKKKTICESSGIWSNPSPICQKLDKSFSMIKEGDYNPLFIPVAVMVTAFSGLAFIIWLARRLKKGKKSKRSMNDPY

P-selectin = target: T4, P-selectin (Homo sapiens, UniProt P16109); assay: Inhibitory activity against P-selectin was determined
T4 sequence (P16109 whole entry): T2 sequence (whole entry)

| Compound | Activity [1] | Activity [2] | Activity [3] | IC50 (P-selectin) [µM] |
| --- | --- | --- | --- | --- |
| C[C@@]12CCC[C@@](C)(C(=O)O)C1CC[C@]13C[C@H](O[C@H]4O[C@H](CO)[C@@H](O)[C@@H](O)[C@@H]4O)[C@](O)(CCC12)C3 (stereo partly specified) | inactive | inactive | inactive |  |
| C[C@@]12CCC[C@@](C)(C(=O)O)C1CC[C@@]13C[C@@H](O[C@H]4O[C@H](CO)[C@@H](O)[C@@H](O)[C@@H]4O)[C@@](C)(CCC12)C3 (stereo partly specified) | inactive |  | inactive | 60 |
